Values quoted from earlier work as cited in patent US10772323B2, “Benzoic acid herbicide composition” (NUFARM AUSTRALIA LIMITED, priority 2015, dated 2020).

Settings: acid form; 25° C.

water solubility: about 4500 mg/L
SMILES: COc1c(Cl)ccc(Cl)c1C(=O)O [dicamba, 3,6-dichloro-2-methoxybenzoic acid]
